The values below come from US8592435B2, “Nitrogen-containing six-membered aromatic ring derivatives and pharmaceutical products containing the same” (Daiichi Sankyo Company, Limited, priority 2007, dated 2013).

Structures can show the parent of a compound that is named as a salt.

Test [1] has as its system mixture of human vascular endothelial cells and fibroblasts. The experiment in a line: Test Example 2: ability to promote angiogenesis (angiogenesis test kit KZ-1000). It is filed as cell-based. As to conditions: Homo sapiens, 216 h, lumen length, % of control, day 9, read-out: Promotion of angiogenesis (%); for activity at 0.3 µM: Compound Conc. = 0.3 μM; for activity at 3 µM: Compound Conc. = 3 μM. The protocol: Using an angiogenesis test kit containing a mixture of human vascular endothelial cells and fibroblasts [KZ-1000; Kurabo], the ability of test compounds to promote angiogenesis was evaluated. Each test compound was added on days 1, 4, and 7 of the incubation period. On day 9, cells were immunostained with CD31 and photographed. Control cells were cultured under the same conditions, only without the addition of a test compound, and photographed.
The lumen length of the blood vessel was quantified from the obtained images using an angiogenesis-quantification software. The ability (%) of each test compound to promote angiogenesis was calculated from the following equation: The ability to promote angiogenesis (%)=[(measurement with a compound of interest)/(measurement of control)]×100
Example Compounds shown in Table 26 were used as test compounds.
Since bFGF gives a measurement of about 120 in this test, 120 is used as the threshold to determine whether a given compound has the ability to promote angiogenesis.

The test system of the next test is hippocampal neurons. Description: Test Example 1: ability to promote axonal outgrowth. It is filed as cell-based, Wistar rats. As to conditions: Hippocampal neuron, 216 h, % of control, rat hippocampal neurons, day 9, read-out: Promotion of axonal outgrowth (%); for activity at 3 µM: Compound Conc. = 3 μM; for activity at 0.3 µM: Compound Conc. = 0.3 μM. How it is done: According to the method of M. P. Mattson [M. P. Mattson, Brain Res. Rev., 13, 179, (1988)], the hippocampal region was isolated from 18-day embryos of female Wistar rats and the neurons were dispersed using the papain dissociation system. Hippocampal neuron were suspended in 5% Nu-serum+B27 supplement+Neurobasal medium at 5×10^4 cells/well/2 mL. 2 mL of the cell suspension were inoculated on a poly-D-lysine-coated 36φ dish and the neuron were incubated at 37° C. in a 5% CO2 incubator.
On day 3 of the incubation period, 1 mL of the culture medium was replaced with 1 mL of 5% Nu-serum+B27 supplement+Neurobasal medium containing 2 mM AraC. Each test compound was added to the culture on day 3 and day 7 of the incubation period. On day 9, cells were fixed in a 4% paraformaldehyde solution. The nerve axons of the fixed cells were stained with the Rabbit anti-growth-associated protein-43 polyclonal antibody and the stained cells were quantified using Kurabo neuron outgrowth-quantication software.
The ability (%) of each test compound to promote axonal outgrowth was calculated from the following equation: The ability to promote axonal outgrowth (%)=[(measurement with a compound of interest)/(measurement of control)]×100
Example Compounds shown in Table 25 were used as test compounds and were each added at concentrations of 3 μM and 0.3 μM.
Since bFGF gives a measurement of about 120 in this test, 120 is used as the threshold to determine whether a given compound has the ability to promote axonal outgrowth

As to `CNc1c(C)nc(OC(C)C(=O)N(C)C2CCN(Cc3ccccc3)CC2)nc1C` (stereo not drawn) [Compound 100, N-(1-benzylpiperidine-4-yl)-2-(4,6-dimethyl-5-(methylamino)pyrimidine-2-yloxy)-N-methylpropanamide], the activity at 0.3 µM in test [1] came to 116%. In the test with hippocampal neurons, the activity at 3 µM came to 128%.

Turning to `Cc1nc(OCC(=O)N(C)C2CCN(Cc3ccc(C(N)=O)cc3)CC2)nc(C)c1N` [Compound 64, 4-((4-(2-(5-amino-4,6-dimethylpyrimidine-2-yloxy)-N-methylacetamide)piperidine-1-yl)methyl)benzamide], the activity at 3 µM in test [1] stood at 177%. For the same compound, the activity at 0.3 µM with hippocampal neurons came out at 120%.

For `Cc1nc(NCC(=O)N(C)C2CCN(Cc3ccccc3)CC2)nc(C)c1N` [Compound 63, 2-(5-amino-4,6-dimethylpyrimidine-2-ylamino)-N-(1-benzylpiperidine-4-yl)-N-methylacetamide], the activity at 3 µM in the test on hippocampal neurons is 186%.

For the compound `CN(C(=O)COc1cncc(Cl)n1)C1CCN(Cc2ccccc2)CC1` [Compound 129, N-(1-benzylpiperidine-4-yl)-2-(6-chloropyrazine-2-yloxy)-N-methylacetamide hydrochloride], the activity at 3 µM in the test on hippocampal neurons is 147%.

Consider `Cc1nc(OC(C)C(=O)N(C)C2CCN(CC3CC3)CC2)nc(C)c1N` (stereo not drawn) [Compound 98, 2-(5-amino-4,6-dimethylpyrimidine-2-yloxy)-N-(1-(cyclopropylmethyl)piperidine-4-yl)-N-methylpropanamide], for which the activity at 0.3 µM in test [1] came out at 129%. In addition, the activity at 3 µM in the test with hippocampal neurons came out at 130%.

For `CN(C(=O)COc1cncc(Cl)c1)C1CCN(Cc2ccccc2)CC1` [Compound 125, N-(1-benzylpiperidine-4-yl)-2-(5-chloropyridine-3-yloxy)-N-methylacetamide hydrochloride], in the test on hippocampal neurons, the activity at 0.3 µM came out at 173%.

Turning to `CC(C)c1nc(OCC(=O)N(C)C2CCN(Cc3ccccc3)CC2)nc(C(C)C)c1N` [Compound 104, 2-(5-amino-4,6-diisopropylpyrimidine-2-yloxy)-N-(1-benzylpiperidine-4-yl)-N-methylacetamide], the activity at 0.3 µM in the test on hippocampal neurons is 134%.

As to `Cc1nc(OCC(=O)N(C)C2CCN(C(=O)N3CCCCC3)CC2)nc(C)c1N` [Compound 80, 2-(5-amino-4,6-dimethylpyrimidine-2-yloxy)-N-methyl-N-(1-(piperidine-1-carbonyl)piperidine-4-yl)acetamide], in test [1], the activity at 0.3 µM is 116%. Further, the activity at 3 µM in the test with hippocampal neurons is 129%.

As to `COc1cnnc(Cl)c1NCC(=O)N(C)C1CCN(Cc2ccccc2)CC1` [Compound 140, N-(1-benzylpiperidine-4-yl)-2-(3-chloro-5-methoxypyridazine-4-ylamino)-N-methylacetamide], the activity at 0.3 µM with hippocampal neurons came to 128%.

For `Cc1cc(C)nc(OCC(=O)N(C)C2CCN(Cc3ccccc3)CC2)n1` [Compound 95, N-(1-benzylpiperidine-4-yl)-2-(4,6-dimethylpyrimidine-2-yloxy)-N-methylacetamide hydrochloride], the activity at 3 µM came out at 133% in test [1] and 201% with hippocampal neurons.

As to `COc1cccc(CN2CCC(N(C)C(=O)COc3nc(C)c(N)c(C)n3)CC2)c1` [Compound 88, 2-(5-amino-4,6-dimethylpyrimidine-2-yloxy)-N-(1-(3-methoxybenzyl)piperidine-4-yl)-N-methylacetamide hydrochloride], the activity at 3 µM in test [1] worked out at 122%. Further, in the test with hippocampal neurons, the activity at 0.3 µM was 142%.

Regarding `CN(C(=O)COc1cncc(Cl)c1)C1CCN(CC2CC2)CC1` [Compound 126, 2-(5-chloropyridine-3-yloxy)-N-(1-(cyclopropylmethyl)piperidine-4-yl)-N-methylacetamide hydrochloride], in the test on hippocampal neurons, the activity at 3 µM is 167%.

For `Cc1nc(OCC(=O)N(C)C2CCN(CCc3ccccc3)CC2)nc(C)c1N` [Compound 75, 2-(5-amino-4,6-dimethylpyrimidine-2-yloxy)-N-methyl-N-(1-phenetylpiperidine-4-yl)acetamide], the activity at 3 µM came out at 150% in test [1] and 125% in the test with hippocampal neurons.

Consider `Cc1cc([N+](=O)[O-])cnc1NCC(=O)N(C)C1CCN(Cc2ccccc2)CC1` [Compound 123, N-(1-benzylpiperidine-4-yl)-N-methyl-2-(3-methyl-5-nitropyridine-2-ylamino)acetamide], for which the activity at 3 µM in test [1] turned out to be 132%; in the test on hippocampal neurons it was 131%.

In the case of `Cc1nc(OCC(=O)N(C)C2CCN(Cc3ccc(C(F)(F)F)cc3)CC2)nc(C)c1N` [Compound 69, 2-(5-amino-4,6-dimethylpyrimidine-2-yloxy)-N-methyl-N-(1-(4-(trifluoromethyl)benzyl)piperidine-4-yl)acetamide], the activity at 0.3 µM in test [1] is 161%; in the test with hippocampal neurons it was 172%.

Take `Cc1nc(OCC(=O)NC2CCN(CC3CC3)CC2)nc(C)c1N` [Compound 101, 2-(5-amino-4,6-dimethylpyrimidine-2-yloxy)-N-(1-(cyclopropylmethyl)piperidine-4-yl)acetamide]: the activity at 3 µM with hippocampal neurons was found to be 193%.

Take `Cc1ccccc1CN1CCC(N(C)C(=O)COc2nc(C)c(N)c(C)n2)CC1` [Compound 81, 2-(5-amino-4,6-dimethylpyrimidine-2-yloxy)-N-methyl-N-(1-(2-methylbenzyl)piperidine-4-yl)acetamide]: the activity at 3 µM is 126% in test [1] and 115% in the test with hippocampal neurons.

For the compound `Cc1cnc(N)nc1NCC(=O)N(C)C1CCN(Cc2ccccc2)CC1` [Compound 111, 2-(2-amino-5-methylpyrimidine-4-ylamino)-N-(1-benzylpiperidine-4-yl)-N-methylacetamide maleate], in test [1], the activity at 3 µM was determined as 121%. Further, in the test on hippocampal neurons, the activity at 0.3 µM turned out to be 118%.

`Cc1nc(OCC(=O)N(C)C2CCN(C(=O)C3CCCCC3)CC2)nc(C)c1N` [Compound 76, 2-(5-amino-4,6-dimethylpyrimidine-2-yloxy)-N-(1-(cyclohexanecarbonyl)piperidine-4-yl)-N-methylacetamide hydrochloride]: the activity at 3 µM in test [1] was 149%; in the test with hippocampal neurons, 123%.

As for `CN(C(=O)CNc1c(Cl)cnnc1Cl)C1CCN(Cc2ccccc2)CC1` [Compound 139, N-(1-benzylpiperidine-4-yl)-2-(3,5-dichloropyridazine-4-ylamino)-N-methylacetamide], the activity at 3 µM in the test with hippocampal neurons was found to be 143%.

For `O=C(COc1ccc(Cl)nn1)N(C1CC1)C1CCN(Cc2ccccc2)CC1` [Compound 138, N-(1-benzylpiperidine-4-yl)-2-(6-chloropyridazine-3-yloxy)-N-cyclopropylacetamide], the activity at 3 µM with hippocampal neurons came out at 151%.

Turning to `Cc1nc(OCC(=O)N(C)C2CCNCC2)nc(C)c1N` [Compound 94, 2-(5-amino-4,6-dimethylpyrimidine-2-yloxy)-N-methyl-N-(piperidine-4-yl)acetamide], the activity at 3 µM with hippocampal neurons amounted to 122%.

Regarding `Cc1nc(N)nc(C)c1OCC(=O)N(C)C1CCN(Cc2ccccc2)CC1` [Compound 113, 2-(2-amino-4,6-dimethylpyrimidine-5-yloxy)-N-(1-benzylpiperidine-4-yl)-N-methylacetamide], the activity at 3 µM in the test with hippocampal neurons is 144%.

In the case of `Cc1cnc(Cl)nc1OC(C)(C)C(=O)N(C)C1CCN(Cc2ccccc2)CC1` [Compound 112, N-(1-benzylpiperidine-4-yl)-2-(2-chloro-5-methylpyrimidine-4-yloxy)-N,2-dimethylpropanamide maleate], in the test with hippocampal neurons, the activity at 3 µM is 126%.
